We go through two compounds from EP0003415A2, “Beta-Lactam compounds, processes for their preparation,compositions containing them and intermediates of use in their preparation” (GLAXO GROUP LIMITED, priority 1978, dated 1979).

Common to all, as to assay: Determination of Minimum Inhibitory Concentrations (MIC), agar dilution
Holding throughout (format): cell-based
A general note: Agar dilution tests growth on a series of plates holding different concentrations.

In one experiment the test system is S. marcescens 1324E. As to conditions: Serratia marcescens, clinical isolate, Oxoid No.1 Nutrient agar, approximately 10^5 colony forming units, read after 18 hours at 37°C. An excerpt: (§1) Biological testing of two of the compounds of the invention has provided the results shown below; the test compounds are identified by their Example Numbers: 1. Determination of Minimum Inhibitory Concentrations (MIC) Serial two-fold dilutions of freshly prepared test solutions were made into Oxoid No.l Nutrient agar with or without added enrichment and poured into petri […] Plates were inoculated with a multipoint inoculator with inoculum containing approximately 10^5 colony forming units of the organisms shown in the following Tables, all of which organisms are clinical isolates. The MIC, quoted in the Table as μg/ml, was read after 18 hours incubation at 37°C as the lowest concentration which inhibited growth.

For another experiment, the system named is K. aerogenes 1522E. Conditions: Klebsiella aerogenes, clinical isolate, Oxoid No.1 Nutrient agar, approximately 10^5 colony forming units, read after 18 hours at 37°C.
From the text: as §1

The next experiment has as its system H. influenzae 1184E. As to conditions: Haemophilus influenzae, clinical isolate, Oxoid No.1 Nutrient agar, approximately 10^5 colony forming units, read after 18 hours at 37°C.
From the text: as §1

The test system of another experiment is E. coli 851E. As to conditions: Escherichia coli, clinical isolate, Oxoid No.1 Nutrient agar, approximately 10^5 colony forming units, read after 18 hours at 37°C.
From the text: as §1

In another experiment the test system is Micrococcus Sp 1810E. Conditions: SP1810E, clinical isolate, Oxoid No.1 Nutrient agar, approximately 10^5 colony forming units, read after 18 hours at 37°C.
From the text: as §1

The next experiment deals with E. cloacae 1051E. As to conditions: Enterobacter cloacae, clinical isolate, Oxoid No.1 Nutrient agar, approximately 10^5 colony forming units, read after 18 hours at 37°C.
From the text: as §1

In a further experiment the test system is E. cloacae 1321E. Conditions: Enterobacter cloacae, clinical isolate, Oxoid No.1 Nutrient agar, approximately 10^5 colony forming units, read after 18 hours at 37°C.
From the text: as §1

In another experiment the test system is Staph.aureus 853E. As to conditions: Staphylococcus aureus, clinical isolate, Oxoid No.1 Nutrient agar, approximately 10^5 colony forming units, read after 18 hours at 37°C.
From the text: as §1

Values after ≈ are worked out from the molar mass of the structure shown.

Turning to `NCCC1=C(C(=O)O)N2C(=O)CC2S1` (racemic) [Example 4, (5RS)-2-(2-Aminoethyl)pen-2-em-3-carboxylic acid], the MIC is 31 µg/mL (≈ 145 µM) with S. marcescens 1324E; 16 µg/mL (≈ 74.7 µM) against K. aerogenes 1522E; 62 µg/mL (≈ 289 µM) against H. influenzae 1184E; 8 µg/mL (≈ 37.3 µM) against E. coli 851E; 0.2 µg/mL (≈ 0.934 µM) against Micrococcus Sp 1810E; 8 µg/mL (≈ 37.3 µM) in the experiment with E. cloacae 1051E. The MIC amounted to 8 µg/mL (≈ 37.3 µM) against E. cloacae 1321E and 1 µg/mL (≈ 4.67 µM) in the experiment with Staph.aureus 853E.

With `NCCCC1=C(C(=O)O)N2C(=O)CC2S1` (racemic) [Example 19, (5RS)-2-[3-Aminopropyl]-pen-2-em-3-carboxylate], the MIC in the experiment with S. marcescens 1324E came out at 31 µg/mL (≈ 136 µM); against K. aerogenes 1522E, 16 µg/mL (≈ 70.1 µM); with H. influenzae 1184E it was 16 µg/mL (≈ 70.1 µM); in the experiment with E. coli 851E, 8 µg/mL (≈ 35 µM); in the experiment on Micrococcus Sp 1810E, 0.1 µg/mL (≈ 0.438 µM); against E. cloacae 1051E, 16 µg/mL (≈ 70.1 µM). Moreover, the MIC in the experiment on E. cloacae 1321E came out at 8 µg/mL (≈ 35 µM); in the experiment on Staph.aureus 853E it was 0.5 µg/mL (≈ 2.19 µM).
